# According to ChEMBL document CHEMBL5260817, “Polyamine-based analogs and conjugates as antikinetoplastid agents” (Eur J Med Chem, 2017):
# What was measured:
# Trypanosoma cruzi [1] = experiment: Antiprotozoal activity against Trypanosoma cruzi Y strain epimastigotes; assay type: functional, organism-based
# Trypanothione reductase [2] = biological target: Trypanothione reductase (Crithidia fasciculata, UniProt P39040); experiment: Inhibition of Crithidia fasciculata TryR overexpressed in escherichia coli assessed as inhibition constant
# Chain of Trypanothione reductase (Crithidia fasciculata, UniProt P39040) (P39040 whole entry): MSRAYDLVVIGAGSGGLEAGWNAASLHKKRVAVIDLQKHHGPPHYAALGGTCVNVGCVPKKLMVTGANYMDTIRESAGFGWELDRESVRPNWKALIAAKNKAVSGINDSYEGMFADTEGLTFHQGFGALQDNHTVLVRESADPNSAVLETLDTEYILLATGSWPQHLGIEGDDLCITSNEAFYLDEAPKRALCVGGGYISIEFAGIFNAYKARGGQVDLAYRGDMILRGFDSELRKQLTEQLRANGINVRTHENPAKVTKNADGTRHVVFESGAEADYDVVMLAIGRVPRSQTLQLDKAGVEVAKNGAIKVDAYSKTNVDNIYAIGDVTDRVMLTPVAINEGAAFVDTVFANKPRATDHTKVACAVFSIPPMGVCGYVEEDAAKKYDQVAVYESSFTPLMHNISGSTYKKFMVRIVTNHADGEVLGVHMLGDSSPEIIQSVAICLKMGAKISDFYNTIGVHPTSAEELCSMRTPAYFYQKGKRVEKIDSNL
# Trypanosoma cruzi [3] = experiment: Antiprotozoal activity against Trypanosoma cruzi trypomastigotes assessed as growth inhibition at 1.6 uM relative to control; assay type: functional
# Trypanosoma cruzi [4] = experiment: Antiprotozoal activity against Trypanosoma cruzi MG strain epimastigotes; assay type: functional, organism-based
# Trypanosoma cruzi [5] = experiment: Antiprotozoal activity against Trypanosoma cruzi JEM strain epimastigotes; assay type: functional, organism-based
# Trypanosoma cruzi [6] = experiment: Antiprotozoal activity against Trypanosoma cruzi CL-B5 strain epimastigotes; assay type: functional, organism-based
# Trypanosoma cruzi [7] = experiment: Antiprotozoal activity against Trypanosoma cruzi CL-B5 strain amastigotes; assay type: functional, organism-based
# Trypanosoma cruzi [8] = experiment: Antiprotozoal activity against Trypanosoma cruzi infected in Rhesus monkey LLC-MK2 cells; assay type: functional, organism-based
# Trypanosoma cruzi [9] = experiment: Antiprotozoal activity against Trypanosoma cruzi infected in human Red blood cell; assay type: functional, organism-based; details: Erythrocyte
# Leishmania mexicana = experiment: Antiprotozoal activity against Leishmania mexicana infected in mouse J774 cells; assay type: functional, organism-based
# Leishmania infantum [10] = experiment: Antiprotozoal activity against Leishmania infantum MHOM/MA671TMAP263 axenic amastigotes assessed as growth inhibition measured after 5 day by MTT assay; assay type: functional, organism-based; details: 120 h
# Leishmania infantum [11] = experiment: Antiprotozoal activity against Leishmania infantum MHOM/MA671TMAP263 promastigote assessed as growth inhibition measured after 5 day by MTT assay; assay type: functional, organism-based; details: MHOM/MA671TMAP263, 120 h
# Trypanosoma cruzi [12] = experiment: Antiprotozoal activity against Trypanosoma cruzi […] strain infected in mouse macrophage cell measured after 3 days; assay type: functional, organism-based; details: 72 h
# Trypanosoma cruzi [13] = experiment: Antiprotozoal activity against Trypanosoma cruzi MHOM/BR/OO/Y strain infected in mouse macrophage cell measured after 3 days; assay type: functional, organism-based; details: 72 h
# Leishmania donovani [14] = experiment: Antiprotozoal activity against Leishmania donovani MHOM/ET/67/L82 strain infected in mouse macrophage cell measured after 5 days; assay type: functional, organism-based; details: MHOM/ET/67/L82, Macrophage, 120 h
# Syrian golden hamster = experiment: In vivo antiprotozoal activity against Leishmania donovani amastigotes in hamster spleen assessed as reduction of amastigotes count measured after 7 days relative to control; assay type: functional, Mesocricetus auratus; details: time 7 day
# HepG2 = experiment: Anticancer activity against human HepG2 cells assessed as cell growth inhibition measured after 72 hrs by MTT assay; assay type: functional, cell-based; details: HepG2, 72 h
# Leishmania donovani [15] = experiment: Antiprotozoal activity against Leishmania donovani MHOM/IN/00/DEV strain promastigotes assessed as growth inhibition measured after 72 hrs by MTT assay; assay type: functional, organism-based
# Leishmania donovani [16] = experiment: Antiprotozoal activity against Leishmania donovani promastigote at 10 uM relative to control; assay type: functional
# Trypanosoma cruzi [17] = experiment: Antiprotozoal activity against Trypanosoma cruzi amastigotes infected in mouse Peritoneal macrophage cells assessed as growth inhibition at 1.56 uM relative to control; assay type: functional
# Trypanosoma brucei [18] = experiment: Antiprotozoal activity against Trypanosoma brucei infected in HepG2 cells; assay type: functional, organism-based
# Trypanosoma cruzi [19] = experiment: Antiprotozoal activity against Trypanosoma cruzi infected in mouse assessed as survival rate at 10 mg/kg, po administered 3 times daily on day 6 and 7 then twice daily from day 8 to 12; assay type: functional; details: time 7 day
# [20] = Inhibition of Trypanosoma cruzi recombinant N-terminal His-tag TryS in presence of ATP
# [21] = Inhibition of Leishmania infantum recombinant N-terminal His-tag TryS in presence of ATP
# [22] = Inhibition of Trypanosoma brucei recombinant N-terminal His-tag TryS in presence of ATP
# KB = experiment: Anticancer activity against human KB cells assessed as cell growth inhibition; assay type: functional, cell-based
# Leishmania donovani [23] = experiment: Antiprotozoal activity against Leishmania donovani infected in mouse macrophage cell measured after 72 hrs; assay type: functional, organism-based
# Trypanosoma brucei [24] = experiment: Antiprotozoal activity against Trypanosoma brucei; assay type: functional, organism-based
# Trypanothione reductase [25] = biological target: Trypanothione reductase (Trypanosoma cruzi, UniProt P28593); experiment: Inhibition of Trypanosoma cruzi TryR expressed in escherichia coli SG5
# Chain of Trypanothione reductase (Trypanosoma cruzi, UniProt P28593) (P28593 whole entry): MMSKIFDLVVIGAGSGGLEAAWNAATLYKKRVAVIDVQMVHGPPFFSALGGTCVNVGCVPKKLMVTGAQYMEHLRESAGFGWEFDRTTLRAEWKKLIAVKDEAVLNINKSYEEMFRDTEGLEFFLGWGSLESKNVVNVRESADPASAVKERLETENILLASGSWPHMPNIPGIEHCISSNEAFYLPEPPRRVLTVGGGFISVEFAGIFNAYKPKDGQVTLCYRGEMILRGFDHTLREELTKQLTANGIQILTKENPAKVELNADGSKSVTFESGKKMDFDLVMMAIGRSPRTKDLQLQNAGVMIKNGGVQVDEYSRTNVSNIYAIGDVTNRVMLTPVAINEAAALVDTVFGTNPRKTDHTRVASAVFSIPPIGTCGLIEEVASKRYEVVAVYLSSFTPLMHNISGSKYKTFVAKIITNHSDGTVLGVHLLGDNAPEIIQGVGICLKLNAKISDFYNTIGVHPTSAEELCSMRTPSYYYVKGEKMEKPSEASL
# Trypanosoma cruzi [26] = experiment: Antiprotozoal activity against Trypanosoma cruzi measured after 24 hrs; assay type: functional, organism-based
# Leishmania donovani [27] = experiment: Antiprotozoal activity against Leishmania donovani infected in mouse macrophage cell; assay type: functional, organism-based
# Leishmania donovani [28] = experiment: Leishmanicidal activity against Leishmania donovani; assay type: functional, organism-based
# [29] = Inhibition of Trypanosoma MetRS
# [30] = Inhibition of Trypanosoma brucei MetRS
# [31] = Inhibition of Leishmania infantum TryS in presence of ATP by Malachite green staining based end-point assay
# Leishmania infantum [32] = experiment: Antiprotozoal activity against Leishmania infantum promastigotes; assay type: functional, organism-based
# [33] = Inhibition of Trypanosoma brucei TryS
smiles,measurement,setting,value
NCCC(=O)CN,IC50,Trypanosoma cruzi [1],1180 µM
NCCCNCCCCNCCCNC(=O)CCc1ccc(O)c(O)c1,Ki,Trypanothione reductase [2],85 µM
C1CCC(CCCNCCCN2CCN(CCCNCCCC3CCCCC3)CC2)CC1,inhibition at 1.6 µM,Trypanosoma cruzi [3],70%
CCCCCCCCCCCCCCC(CN)NC(=O)OC(C)(C)C (centres undefined),IC50,Trypanosoma cruzi [4],10 µM
same,IC50,Trypanosoma cruzi [5],10 µM
same,IC50,Trypanosoma cruzi [6],2 µM
same,IC50,Trypanosoma cruzi [7],2 µM
CC(C)=CCC/C(C)=C/CNCCNC1C2CC3CC(C2)CC1C3 (centres undefined) [SQ109],IC50,Trypanosoma cruzi [8],0.5 µM
same,IC50,Trypanosoma cruzi [9],80 µM
same,IC50,Leishmania mexicana,0.01 µM
O=C1c2cccc3cccc(c23)C(=O)N1CCCNCCCNCCCCNCCCNCCCN1C(=O)c2cccc3cccc(c23)C1=O,IC50,Leishmania infantum [10],12.3 µM
same,IC50,Leishmania infantum [11],7.56 µM
CC1=C(CCCCCC(=O)NCCCCNCCCNC(=O)CCCCCC2=C(C)C(=O)c3ccccc3C2=O)C(=O)c2ccccc2C1=O,IC50,Trypanosoma cruzi [12],< 5 µM
same,IC50,Trypanosoma cruzi [13],< 5 µM
same,IC50,Leishmania donovani [14],< 5 µM
COC(=O)/N=C(\NCCCN1CCOCC1)NC(=O)OC,inhibition (INH),Syrian golden hamster,80%
c1ccc2c(c1)cc1c(-c3ccc(CNCCCN4CCN(CCCNCc5ccc(-c6nc7ccccc7n7c6cc6ccccc67)cc5)CC4)cc3)nc3ccccc3n12,IC50,HepG2,1.56 µM
same,IC50,Leishmania donovani [15],0.57 µM
COc1ccc2nc3cc(Cl)ccc3c(NCCCCCCCCNc3c4ccc(Cl)cc4nc4ccc(OC)cc34)c2c1,inhibition at 10 µM,Leishmania donovani [16],99%
same,inhibition at 1.56 µM,Trypanosoma cruzi [17],70%
COc1ccc(CNCCNCc2ccc(OC)cc2)cc1,IC50,Trypanosoma brucei [18],≤ 10 µM
CN(C)CCCN1CCN(C(=O)Cc2ccccc2)CC1,Activity,Trypanosoma cruzi [19],90%
CC(C)c1ccc(CNCCCCCCCCCCNCc2ccc(C(C)C)cc2)cc1,IC50,[20],30 µM
same,IC50,[21],30 µM
same,IC50,[22],30 µM
O=C(O)CCCCCN1CSC(=S)N(CCCCCCN2CN(CCCCCC(=O)O)CSC2=S)C1,IC50,KB,16.1 µM
same,IC50,Leishmania donovani [23],6.74 µM
same,IC50,Trypanosoma brucei [24],0.36 µM
NCCCCN(CCCN)CCCNc1cc(Cl)ccc1Sc1ccccc1,IC50,Trypanothione reductase [25],1 µM
CCCCCCCCCCC(O)CNCCN (centres undefined),IC50,Trypanosoma cruzi [26],31.2 µg/mL
CCCCCCCCCCCCCCCCNc1c(NCC[N+](C)(C)C)c(=O)c1=O,IC50,Leishmania donovani [27],> 12 µM
same,IC50,Leishmania donovani [28],> 12 µM
Fc1ccc2[nH]c(NCCCN[C@@H]3CCNc4c(Cl)cc(Cl)cc43)nc2n1,Ki,[29],0.002 µM
same,IC50,[30],0.002 µM
same,Ki,[30],0.002 µM
same,IC50,Trypanosoma brucei [24],0.0004 µM
CNCCNC(=O)CN1C(=O)Cc2c([nH]c3ccc(C(F)(F)F)cc23)-c2ccccc21,IC50,[31],0.35 µM
same,IC50,Leishmania infantum [32],112 µM
same,IC50,[33],75 µM
